# Test results taken from patent US20130197085A1, “AGENT AND METHOD FOR STABILIZING MEMBRANE PROTEIN” (priority 2007, published 2013).
# Experiments:
# [1] = target: T1, BSEP on canalicular membrane (Rattus norvegicus, UniProt O70127); test: Transport assay using canalicular membrane vesicles (CMVs) from treated rats; format: in vivo, SD rat
# T1 construct: from tissue; host or cells: liver of male SD rats: in vivo for A27, canalicular membrane vesicles for A28 and A29
# T1 sequence (O70127 1-1321): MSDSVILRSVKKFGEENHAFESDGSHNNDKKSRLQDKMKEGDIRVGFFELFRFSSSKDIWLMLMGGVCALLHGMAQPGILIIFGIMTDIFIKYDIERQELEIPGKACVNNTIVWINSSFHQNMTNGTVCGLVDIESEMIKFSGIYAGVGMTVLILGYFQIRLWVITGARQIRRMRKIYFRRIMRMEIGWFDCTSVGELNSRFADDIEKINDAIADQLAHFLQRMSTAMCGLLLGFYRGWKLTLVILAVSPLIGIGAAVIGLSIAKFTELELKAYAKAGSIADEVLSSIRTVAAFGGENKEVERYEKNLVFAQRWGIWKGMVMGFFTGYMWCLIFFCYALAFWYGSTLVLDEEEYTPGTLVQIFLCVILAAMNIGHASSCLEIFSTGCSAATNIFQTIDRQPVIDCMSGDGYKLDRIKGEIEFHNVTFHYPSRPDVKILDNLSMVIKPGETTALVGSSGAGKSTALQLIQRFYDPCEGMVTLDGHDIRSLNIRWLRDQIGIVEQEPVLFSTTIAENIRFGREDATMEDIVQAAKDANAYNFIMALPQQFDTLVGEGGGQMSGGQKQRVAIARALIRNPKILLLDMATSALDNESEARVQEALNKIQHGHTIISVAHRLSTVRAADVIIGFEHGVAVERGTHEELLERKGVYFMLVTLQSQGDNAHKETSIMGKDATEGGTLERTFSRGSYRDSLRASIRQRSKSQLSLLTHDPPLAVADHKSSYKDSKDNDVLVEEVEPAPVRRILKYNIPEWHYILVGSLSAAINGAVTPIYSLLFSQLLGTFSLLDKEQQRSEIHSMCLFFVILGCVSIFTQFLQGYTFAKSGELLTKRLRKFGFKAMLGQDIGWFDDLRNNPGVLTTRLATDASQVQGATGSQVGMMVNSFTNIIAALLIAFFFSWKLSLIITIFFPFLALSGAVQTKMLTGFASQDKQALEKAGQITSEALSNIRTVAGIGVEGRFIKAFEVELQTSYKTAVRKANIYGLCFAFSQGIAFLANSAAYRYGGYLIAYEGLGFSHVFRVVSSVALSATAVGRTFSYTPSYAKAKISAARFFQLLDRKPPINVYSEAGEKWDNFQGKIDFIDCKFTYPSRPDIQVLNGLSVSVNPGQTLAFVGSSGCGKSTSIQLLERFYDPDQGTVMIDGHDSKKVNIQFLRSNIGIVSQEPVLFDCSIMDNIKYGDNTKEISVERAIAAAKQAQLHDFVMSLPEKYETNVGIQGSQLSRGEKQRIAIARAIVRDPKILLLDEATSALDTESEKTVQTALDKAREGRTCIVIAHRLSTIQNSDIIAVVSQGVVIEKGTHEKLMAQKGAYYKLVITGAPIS
# Experimental: […] 4PBA or a vehicle was given to a male SD rat (6- to 7-week-old) for 10 days, divided over 3 administrations. Canalicular membrane vesicles were prepared from the liver of the rat (Akita et al., Biochim Biophys Acta, 1511: 7-16, 2001), and they were then used in Western blotting and a transport assay. Such transport assay was carried out by a rapid filtration method (Hayashi et al., Biochim Biophys Acta, 1738: 54-62, 2005).
# extrinsic P-gp = test: Decomposition rate of cell surface-expressed protein (biotin-labeling) in MDCKII cells; format: cell-based; conditions: 1 mM 4PBA
# D482G BSEP = target: T2, D482G BSEP (Homo sapiens, UniProt O95342, D482G/L339V); test: Brefeldin A washing experiment, maturation of BSEP in MDCKII cells; format: cell-based; conditions: 1 mM 4PBA
# T2 construct: expressed in transfected cells; host or cells: MDCKII cells infected with recombinant adenovirus
# Experimental: (§1) MDCKII cells were dispersed on a 6-well plate, resulting in a density of 2.5×10^5 cells/well. After completion of the culture for 24 hours, the confluent cells were infected with recombinant adenoviruses having the cDNAs of wild-type, E297G and D482G BSEPs, and GFP, at 200 MOI. After completion of the infection, the cells were cultured for 12 hours. Thereafter, in order to inhibit the transport of BSEP from the endoplasmic reticulum to the Golgi body, the cells were treated in the presence or absence of 5 μg/ml brefeldin A (Sigma). After completion of the treatment for 2 hours, in the presence or absence of brefeldin A, 4PBA was added to the cells to a concentration of 1 mM. At the time point of 12 hours after the 4PBA treatment, a crude membrane fraction was prepared. The obtained fraction was separated by 6% SDS-PAGE, and Western blotting was then carried out.
# (§2) The promotion of a process of converting an immature BSEP existing in the endoplasmic reticulum to a mature BSEP existing on the cell surface is considered to be a post-translation mechanism that may be associated with an increase in the expression of the mature BSEP on the cell surface. In order to evaluate the effects of the 4PBA treatment on the maturation of a BSEP, the transport of the BSEP from the endoplasmic reticulum to the Golgi body was inhibited with brefeldin A (BFA), the BFA was then washed out, and the maturation rate of the BSEP on MDCKII cells was measured. BFA is an agent for inducing the accumulation of an immature BSEP existing in the endoplasmic reticulum (FIGS. 5A and 5B). The maturation rate was evaluated by washing out such BFA and then measuring an increased amount of the band density of a mature BSEP over time according to Western blotting. The band density of the mature BSEP was calculated by subtracting the band density at 0 (zero) hour from the band density at each measurement time (FIG. 5B). […] In addition, in the case of mature BSEPs, the expression levels were not changed until 3 hours after the washing out of BFA, regardless of the presence or absence of 4PBA. […] At the time point 8 hours after the washing out of BFA, the MDCKII cells treated with 4PBA were compared with the MDCKII cells that had not been treated with 4PBA. As a result, the expression level of a mature BSEP in the MDCKII cells treated with 4PBA was higher than the same expression level in the MDCKII cells that had not been treated with 4PBA.
# E297G BSEP = target: T3, E297G BSEP (Homo sapiens, UniProt O95342, E297G/L339V); test: as above; format: cell-based; conditions: 1 mM 4PBA
# T3 construct: expressed in transfected cells; host or cells: MDCKII cells infected with recombinant adenovirus
# Experimental: as §1, §2
# wild-type BSEP = target: T4, wild-type BSEP (Homo sapiens, UniProt O95342, L339V); test: as above; format: cell-based; conditions: 1 mM 4PBA
# T4 construct: expressed in transfected cells; host or cells: MDCKII cells infected with recombinant adenovirus
# Experimental: as §1, §2
# [2] = 8 hours after the washing out of BFA
# [3] = immediately after the washing out of BFA (hour 0)
# T2 sequence (O95342 whole entry L339V/D482G): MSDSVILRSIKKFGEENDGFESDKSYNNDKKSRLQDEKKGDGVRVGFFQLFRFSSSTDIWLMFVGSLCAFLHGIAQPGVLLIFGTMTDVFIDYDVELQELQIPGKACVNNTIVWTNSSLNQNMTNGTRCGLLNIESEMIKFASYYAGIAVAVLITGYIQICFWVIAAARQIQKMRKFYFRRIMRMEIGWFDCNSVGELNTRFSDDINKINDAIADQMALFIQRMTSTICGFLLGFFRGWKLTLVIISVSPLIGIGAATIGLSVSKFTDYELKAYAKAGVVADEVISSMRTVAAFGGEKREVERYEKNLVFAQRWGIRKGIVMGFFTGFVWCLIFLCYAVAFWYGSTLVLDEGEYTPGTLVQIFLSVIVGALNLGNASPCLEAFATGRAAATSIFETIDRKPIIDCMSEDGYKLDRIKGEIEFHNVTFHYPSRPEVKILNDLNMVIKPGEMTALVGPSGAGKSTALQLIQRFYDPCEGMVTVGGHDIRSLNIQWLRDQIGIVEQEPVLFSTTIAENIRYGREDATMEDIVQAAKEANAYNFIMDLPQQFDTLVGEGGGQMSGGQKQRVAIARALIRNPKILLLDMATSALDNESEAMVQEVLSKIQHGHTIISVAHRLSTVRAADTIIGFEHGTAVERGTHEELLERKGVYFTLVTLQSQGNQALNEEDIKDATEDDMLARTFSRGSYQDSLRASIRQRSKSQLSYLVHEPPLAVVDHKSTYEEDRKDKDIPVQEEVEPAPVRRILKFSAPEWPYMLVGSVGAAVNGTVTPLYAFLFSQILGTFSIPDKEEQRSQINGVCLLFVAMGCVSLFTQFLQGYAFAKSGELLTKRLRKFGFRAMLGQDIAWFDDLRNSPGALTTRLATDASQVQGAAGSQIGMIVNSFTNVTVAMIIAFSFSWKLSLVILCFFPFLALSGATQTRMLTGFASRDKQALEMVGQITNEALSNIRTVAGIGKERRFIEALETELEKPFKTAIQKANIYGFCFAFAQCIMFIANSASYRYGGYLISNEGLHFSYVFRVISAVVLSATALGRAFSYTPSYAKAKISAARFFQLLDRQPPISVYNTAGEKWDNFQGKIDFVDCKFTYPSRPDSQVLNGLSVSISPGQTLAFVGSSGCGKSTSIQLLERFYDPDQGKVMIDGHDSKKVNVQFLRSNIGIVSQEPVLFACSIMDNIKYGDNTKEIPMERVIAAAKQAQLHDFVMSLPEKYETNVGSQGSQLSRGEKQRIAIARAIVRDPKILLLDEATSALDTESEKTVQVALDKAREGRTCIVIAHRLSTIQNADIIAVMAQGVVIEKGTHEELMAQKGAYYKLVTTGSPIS
# T3 sequence (O95342 whole entry E297G/L339V): as the sequence (O95342 whole entry L339V/D482G) above, with E297G, G482D counted along it
# T4 sequence (O95342 whole entry L339V): as the sequence (O95342 whole entry L339V/D482G) above, with G482D counted along it
structure (smiles),measurement,setting,value
"O=C(O)CCCc1ccccc1 [4PBA, 4-phenylbutyric acid]","ATP-dependent uptake of [^3H] TC by CMVs, higher than CMVs from vehicle-treated rats",[1]; CMVs from SD rats treated at 0.6 g/kg/day for 10 days,3 times
same,Vmax value of [^3H] TC uptake by CMVs,[1]; CMVs from SD rats treated with 4PBA at 0.6 g/kg/day for 10 days,"1,000±110"
same,decomposition of extrinsic P-gp on the cell surface,extrinsic P-gp,not influenced
same,"expression level of mature BSEP, 4PBA-treated vs not treated cells",D482G BSEP; [2],higher
same,"expression level of immature BSEP in the endoplasmic reticulum, with vs without 4PBA",D482G BSEP; [3],almost the same
same,"expression level of mature BSEP, 4PBA-treated vs not treated cells",E297G BSEP; [2],higher
same,"expression level of immature BSEP in the endoplasmic reticulum, with vs without 4PBA",E297G BSEP; [3],almost the same
same,"expression level of mature BSEP, 4PBA-treated vs not treated cells",wild-type BSEP; [2],higher
same,"expression level of immature BSEP in the endoplasmic reticulum, with vs without 4PBA",wild-type BSEP; [3],almost the same
